Test results reported in ChEMBL document CHEMBL1926664, “Synthesis and antiproliferative evaluation of 6-aryl-11-iminoindeno[1,2-c]quinoline derivatives” (2011).
Active and inactive are the calls of the source. No cut-off for these calls is given here.

Key:
MCF7 = experiment: Growth inhibition of human MCF7 cells after 72 hrs by XTT assay; format: functional; settings: MCF7, 72 h
HepG2 [1] = experiment: Induction of apoptosis in human HepG2 cells assessed as Bcl-2 level at 1 to 10 uM after 12 hrs by chemiluminescence blotting method; format: functional, cell-based
HepG2 [2] = experiment: Cell cycle arrest in human HepG2 cells assessed as accumulation at G1 phase at 5 uM after 12 hrs using propidium iodide staining by flow cytometry (reference value: 67.5%); format: functional
[3] = Growth inhibition of human H1299 cells after 72 hrs by XTT assay; format: functional; settings: NCI-H1299, 72 h
HepG2 [4] = experiment: Induction of apoptosis in human HepG2 cells assessed as cell shrinking at 5 uM after 12 hrs by light microscopic method; format: functional, cell-based
[5] = Cell cycle arrest in human Hep3B cells assessed as accumulation at S phase at 5 uM after 12 hrs using propidium iodide staining by flow cytometry (reference value: 12.2%); format: functional, cell-based; settings: Hep 3B2
HepG2 [6] = experiment: Induction of apoptosis in human HepG2 cells assessed as increased expression of Bax protein at 1 to 10 uM after 12 hrs by immunoblot; format: functional, cell-based
A549 = experiment: Growth inhibition of human A549 cells after 72 hrs by XTT assay; format: functional; settings: A549, 72 h
[7] = Cell cycle arrest in human Hep3B cells assessed as accumulation at G2/M phase at 1 uM after 12 hrs using propidium iodide staining by flow cytometry (reference value: 16.2 %); format: functional, cell-based; settings: Hep 3B2
HepG2 [8] = experiment: Growth inhibition of human HepG2 cells assessed as suppression of cell viability at 5 uM after 12 hrs by XTT assay; format: functional, cell-based
HepG2 [9] = experiment: Growth inhibition of human HepG2 cells after 12 to 72 hrs by XTT assay; format: functional, cell-based
HepG2 [10] = experiment: Cell cycle arrest in human HepG2 cells assessed as accumulation at S phase at 10 uM after 12 hrs using propidium iodide staining by flow cytometry (reference value: 13.8%); format: functional
HepG2 [11] = experiment: Induction of apoptosis in human HepG2 cells assessed as increase in caspase-8 level at 1 to 10 uM after 12 hrs by chemiluminescence blotting method; format: functional, cell-based
[12] = Cell cycle arrest in human Hep3B cells assessed as accumulation at G1 phase at 10 uM after 12 hrs using propidium iodide staining by flow cytometry (reference value: 71.6%); format: functional, cell-based; settings: Hep 3B2
HepG2 [13] = experiment: Growth inhibition of human HepG2 cells after 72 hrs by XTT assay; format: functional; settings: HepG2, 72 h
[14] = Cell cycle arrest in human Hep3B cells assessed as accumulation at G2/M phase at 10 uM after 12 hrs using propidium iodide staining by flow cytometry (reference value: 16.2 %); format: functional, cell-based; settings: Hep 3B2
HepG2 [15] = experiment: Cell cycle arrest in human HepG2 cells assessed as accumulation at G2/M phase at 5 uM after 12 hrs using propidium iodide staining by flow cytometry (reference value: 18.7 %); format: functional
Hep 3B2 [16] = experiment: Growth inhibition of human Hep3B cells at 0.1 to 5 uM by XTT assay; format: functional, cell-based; settings: TDE = time-dependent effect
HepG2 [17] = experiment: Cell cycle arrest in human HepG2 cells assessed as accumulation at G2/M phase at 1 uM after 12 hrs using propidium iodide staining by flow cytometry (reference value: 18.7 %); format: functional
[18] = Cell cycle arrest in human Hep3B cells assessed as accumulation at sub-G1 phase at 10 uM after 12 hrs using propidium iodide staining by flow cytometry (reference value: 2.1%); format: functional, cell-based; settings: Hep 3B2
HepG2 [19] = experiment: Cell cycle arrest in human HepG2 cells assessed as accumulation at sub-G1 phase at 10 uM after 12 hrs using propidium iodide staining by flow cytometry (reference value: 3.6%); format: functional
HepG2 [20] = experiment: Cell cycle arrest in human HepG2 cells assessed as accumulation at G1 phase at 1 uM after 12 hrs using propidium iodide staining by flow cytometry (reference value: 67.5%); format: functional
HepG2 [21] = experiment: Cell cycle arrest in human HepG2 cells assessed as accumulation at G2/M phase at 10 uM after 12 hrs using propidium iodide staining by flow cytometry (reference value: 18.7 %); format: functional
[22] = Growth inhibition of human Hep3B cells after 72 hrs by XTT assay; format: functional, Hep 3B2
HepG2 [23] = experiment: Cell cycle arrest in human HepG2 cells assessed as accumulation at sub-G1 phase at 5 uM after 12 hrs using propidium iodide staining by flow cytometry (reference value: 3.6%); format: functional
[24] = Cell cycle arrest in human Hep3B cells assessed as accumulation at sub-G1 phase at 5 uM after 12 hrs using propidium iodide staining by flow cytometry (reference value: 2.1%); format: functional, cell-based; settings: Hep 3B2
HepG2 [25] = experiment: Cell cycle arrest in human HepG2 cells assessed as accumulation at sub-G1 phase at 1 uM after 12 hrs using propidium iodide staining by flow cytometry (reference value: 3.6%); format: functional
[26] = Cell cycle arrest in human Hep3B cells assessed as accumulation at G2/M phase at 5 uM after 12 hrs using propidium iodide staining by flow cytometry (reference value: 16.2 %); format: functional, cell-based; settings: Hep 3B2
[27] = Cell cycle arrest in human Hep3B cells assessed as accumulation at sub-G1 phase at 1 uM after 12 hrs using propidium iodide staining by flow cytometry (reference value: 2.1%); format: functional, cell-based; settings: Hep 3B2
[28] = Cell cycle arrest in human Hep3B cells assessed as accumulation at S phase at 10 uM after 12 hrs using propidium iodide staining by flow cytometry (reference value: 12.2%); format: functional, cell-based; settings: Hep 3B2
[29] = Cell cycle arrest in human Hep3B cells assessed as accumulation at G1 phase at 1 uM after 12 hrs using propidium iodide staining by flow cytometry (reference value: 71.6%); format: functional, cell-based; settings: Hep 3B2
[30] = Cell cycle arrest in human Hep3B cells assessed as accumulation at S phase at 1 uM after 12 hrs using propidium iodide staining by flow cytometry (reference value: 12.2%); format: functional, cell-based; settings: Hep 3B2
HepG2 [31] = experiment: Growth inhibition of human HepG2 cells at 0.1 to 5 uM by XTT assay; format: functional, cell-based; settings: TDE = time-dependent effect
HepG2 [32] = experiment: Cell cycle arrest in human HepG2 cells assessed as accumulation at S phase at 5 uM after 12 hrs using propidium iodide staining by flow cytometry (reference value: 13.8%); format: functional
[33] = Cell cycle arrest in human Hep3B cells assessed as accumulation at G1 phase at 5 uM after 12 hrs using propidium iodide staining by flow cytometry (reference value: 71.6%); format: functional, cell-based; settings: Hep 3B2
MDA-MB-231 = experiment: Growth inhibition of human MDA-MB-231 cells after 72 hrs by XTT assay; format: functional; settings: MDA-MB-231, 72 h
HepG2 [34] = experiment: Cell cycle arrest in human HepG2 cells assessed as accumulation at G1 phase at 10 uM after 12 hrs using propidium iodide staining by flow cytometry (reference value: 67.5%); format: functional
HepG2 [35] = experiment: Induction of apoptosis in human HepG2 cells assessed as increase in expression of p53 protein at 1 to 10 uM after 12 hrs by chemiluminescence blotting method; format: functional, cell-based
HepG2 [36] = experiment: Cell cycle arrest in human HepG2 cells assessed as accumulation at S phase at 1 uM after 12 hrs using propidium iodide staining by flow cytometry (reference value: 13.8%); format: functional
Hep 3B2 [37] = experiment: Growth inhibition of human Hep3B cells assessed as assessed as suppression of cell viability at 5 uM after 12 hrs by XTT assay; format: functional, cell-based
Hep 3B2 [38] = experiment: Growth inhibition of human Hep3B cells after 12 to 72 hrs by XTT assay; format: functional, cell-based
Hep 3B2 [39] = experiment: Induction of apoptosis in human Hep3B cells assessed as cell shrinking at 5 uM after 12 hrs by light microscopic method; format: functional, cell-based

For `CN(C)CCCO/N=C1\c2cc(O)ccc2-c2c(-c3ccc(OCCCN(C)C)cc3)nc3ccc(F)cc3c21`, the GI50 (MCF7) was 6460 nM, the Activity (HepG2 [1]) was “Active” and the Activity (HepG2 [2]) was 38.1%. The GI50 [3] was 670 nM, the Activity (HepG2 [4]) was “Active” and the Activity [5] was 17.4%. For the same compound, the Activity (HepG2 [6]) was “Active”, the GI50 (A549) was 550 nM and the Activity [7] was 30.7%. For the same compound, the “growth inhibition (GI)” value (HepG2 [8]) was “Active”, the “growth inhibition (GI)” value (HepG2 [9]) was “Dose-dependent effect” and the Activity (HepG2 [10]) was 21.7%. For the same compound, the Activity (HepG2 [11]) was “Active”, the Activity [12] was 37.2% and the GI50 (HepG2 [13]) was 640 nM. The Activity [14] was 14.1%, the Activity (HepG2 [15]) was 23.6% and the “growth inhibition (GI)” value (Hep 3B2 [16]) was “tde”. The Activity (HepG2 [17]) was 31.1%, the Activity [18] was 33.5% and the Activity (HepG2 [19]) was 29.1%. It also gave an Activity (HepG2 [20]) of 56.5%, an Activity (HepG2 [21]) of 17.9% and a GI50 [22] of 390 nM. It also gave an Activity (HepG2 [23]) of 19.8%, an Activity [24] of 21.8% and an Activity (HepG2 [25]) of 4.9%. The Activity [26] was 18.1%, the Activity [27] was 5.3% and the Activity [28] was 15.2%. The Activity [29] was 58.9%, the Activity [30] was 10.4% and the “growth inhibition (GI)” value (HepG2 [31]) was “tde”. The Activity (HepG2 [32]) was 18.5%, the Activity [33] was 42.7% and the GI50 (MDA-MB-231) was 650 nM. The Activity (HepG2 [34]) was 31.3%, the Activity (HepG2 [35]) was “Active” and the Activity (HepG2 [36]) was 12.4%. The “growth inhibition (GI)” value (Hep 3B2 [37]) was “Active”, the “growth inhibition (GI)” value (Hep 3B2 [38]) was “Dose-dependent effect” and the Activity (Hep 3B2 [39]) was “Active”.
